# Data from patent US20030195183A1, “Method for correcting immune system of live body” (priority 2000, published 2003).
# “And” between values parts separate entries of the source, which are not always exact repeats. Equal values may be shown once.
# Tests used:
# [1] = clinical study, treatment of acute intestinal infections (AII); assay type: in vivo, human
# Method: Efficacy of the preparation in decreasing the gravity of manifestations of various forms of AII was evaluated in accordance with the used program of study with aid of a three-point scale.
# After the study was finished, general evaluation of clinical efficacy and safety of the preparation based on a 4-point scale, depending on nosologic forms, was carried out.
# phagocytic cells = test: phagocytosis in vivo (peritoneal neutrophils and macrophages, St. aureus); design: species or system Strain C57BL6 mice
# Method: Intraperitoneal injection of 3 ml of 3% peptone was made, and 2 hours later the animals were killed with chloroform. The mice were autopsied in aseptic conditions. Liquid was aspirated from abdominal cavity with a Pasteur's pipette and transferred to centrifuge test tubes; then centrifuging was carried out for 10 minutes at 1,000 rpm. […] Similar volume of Strain 1991 St. aureus was added to cells in a proportion of 1:10 proportion and incubated at 37° C. for 30 minutes. After incubation, smears were prepared on slides, fixed in methanol for 20 minutes and processed with Romanovsky-Giemsa's stain for 30 minutes. For evaluating the phagocytic activity of macrophages, the animals were tested on the third day after administration of peptone. Further testing was carried out similarly with that of neutrophils. The results were evaluated using a microscope at a magnification of 90×. Phagocytic index and phagocytic number were determined.
# neutrophils = test: neutrophil phagocytosis in vitro; assay type: cell-based, human; conditions: for Phagocytic Index, Study Group / Phagocytic number, Study Group: individual samples
# Method: For evaluating the effect of the preparation on phagocytosis in vitro, blood sample was collected from donor's cubital vein in a test tube containing heparin at a dose of 10 units per ml of blood. 0.8 ml of 3% gelatin prepared based on Medium 199 were added to 2 ml of blood. The test tubes were incubated in a thermostat at 37° C. for 20 minutes. Then the supernatant containing cells was aspirated to a centrifuge tube. Cells were twice washed with Medium 199 with centrifuging at 1,000 rpm. 1 ml of Medium 199 was added to the sediment and neutrophils were counted in Goryaev's chamber. Then, cellular suspension containing 2·10^6 neutrophils in 1 ml was prepared based on Medium 199. Simultaneously, suspension of St. aureus in a concentration of 20·10^6/ml was prepared. After preliminary opsonization with an equal volume of pooled human plasma in a thermostat at 37° C. for 20 minutes, the Staphylococcus suspension was centrifuged and washed with Medium 199. The preparation in 200, 20 and 2 μg/ml concentrations was added to mixture of equal volumes of neutrophils and staphylococci; Medium 199 was added to control test tubes. After incubation in a thermostat at 37° C. for 30 minutes, the test tubes where centrifuged, and preparations were prepared in accordance with the procedure described above. Phagocytic index and phagocytic number for study group were compared with the same for control group.
# [2] = system: macrophages, interleukins and other acute phase proteins; conditions: e.g. patients with malignant tumors; dose range of 10 to 1000 mg; cited from earlier work
# [3] = Acute gastroenteritis, 4 patients
# [4] = Alimentary toxoinfection, 4 patients
# [5] = third dose group, dose cell empty
smiles,measurement,setting,value
"Nc1cccc2c(=O)[nH][nH]c(=O)c12.[K] [potassium salt of 5-amino-2,3-dihydrophthalazine-1,4-dione]","patients with ""excellent"" or ""good"" effect",[1]; 20 patients with various forms of AII,90 % of patients
same,Efficacy of the preparation: Excellent (number of patients),"[1]; Acute dysentery, 9 patients",1
same,Efficacy of the preparation: Good (number of patients),"[1]; Acute dysentery, 9 patients",7
same,Efficacy of the preparation: Satisfactory (number of patients),"[1]; Acute dysentery, 9 patients",1
same,Efficacy of the preparation: Excellent (number of patients),[1]; [3],2
same,Efficacy of the preparation: Good (number of patients),[1]; [3],1
same,Efficacy of the preparation: Satisfactory (number of patients),[1]; [3],1
same,Efficacy of the preparation: Excellent (number of patients),[1]; [4],1
same,Efficacy of the preparation: Good (number of patients),[1]; [4],3
same,Efficacy of the preparation: Excellent (number of patients),"[1]; Salmonellosis, 3 patients",1
same,Efficacy of the preparation: Good (number of patients),"[1]; Salmonellosis, 3 patients",2
same,Efficacy of the preparation: Excellent (number of patients),"[1]; Total, 20 patients",5
same,Efficacy of the preparation: Good (number of patients),"[1]; Total, 20 patients",13
same,Efficacy of the preparation: Satisfactory (number of patients),"[1]; Total, 20 patients",2
same,"patients in whom the intoxication syndrome resolved within 1 to 3 days (""complete decrease"")",[1]; of 20 patients,19 patients
same,"patients with ""insignificant decrease"" in the first days and ""complete decrease"" by the 5th day of treatment",[1]; of 20 patients,one
same,"patients with ""excellent"" or ""good"" effect",[1]; of 20 patients with various forms of AII,18 patients
same,stimulating effect on phagocytic cells / phagocytic activity in vivo,phagocytic cells; dose 200 μg,no stimulating effect
same,ability of phagocytic cells to intake microbial cells,phagocytic cells; doses of 2 ug and 20 ug,statistically significant increase
same,phagocytic activity of macrophages in mice,phagocytic cells; doses ranging from 200 to 2 μg,stimulating effects
same,"Phagocytic Index, Study Group, Mean",neutrophils; dose 20 μg,7.8 ± 0.04
same,"Phagocytic number, Study Group, Mean",neutrophils; dose 20 μg,89 ± 1.25
same,"Phagocytic Index, Study Group",neutrophils; dose 20 μg,3.9 and 2.8 and 4.6 and 6.8 and 13.2 and 9.1 and 16.3 and 5.2
same,"Phagocytic number, Study Group",neutrophils; dose 20 μg,80 and 96 (2×) and 88 and 94 and 84 (2×) and 86
same,"Phagocytic Index, Study Group, Mean",neutrophils; dose 200 μg,6.0 ± 0.04
same,"Phagocytic number, Study Group, Mean",neutrophils; dose 200 μg,77 ± 0.26
same,"Phagocytic Index, Study Group",neutrophils; dose 200 μg,5.6 and 4.7 and 9.1 and 6.4 and 7.4
same,"Phagocytic number, Study Group",neutrophils; dose 200 μg,78 and 85 and 84 and 71 and 67
same,ability of neutrophils population to intake microbial cells,neutrophils; doses of 20 and 2 μg,statistically significant increase
same,effect on digestive activity of neutrophils,neutrophils; doses of 20 and 2 μg,practically no effect
same,"Phagocytic Index, Study Group, Mean",neutrophils; [5],6.0 ± 0.16
same,"Phagocytic number, Study Group, Mean",neutrophils; [5],86 ± 0.32
same,"Phagocytic Index, Study Group",neutrophils; [5],6.4 (2×) and 4.5 and 7.4 and 5.6
same,"Phagocytic number, Study Group",neutrophils; [5],88 and 92 (2×) and 78 and 84
"Nn1[n-]c(=O)c2ccccc2c1=O.O.O.[Na+] [sodium salt of 2-amino-1,2,3,4-tetrahydrophthalazine-1,4-dione, dihydrate]",effect in patients with weak cellular immunity reactions,[2],"activation of macrophages, interleukins and other acute phase proteins"
